The target in this experiment is T1, human histamine H3 receptor (Homo sapiens, UniProt Q9Y5N1, E19D).
T1 construct: achieved by transfection of full-length human histamine H3 receptor cDNA into a mammalian host cell; expressed in transfected cells; membrane preparation
The experiment is described as follows: Saturation binding of [3H]-N-alpha-methylhistamine to membranes of pH3R expressing L cells. The following applies: recombinant receptor in L cells, FIG. 7, radioligand 0.01 nM-25 nM, room temperature 45 minutes. As to the method:
Binding Assay on Recombinant Human Histamine H3 Receptor L cells that inhibited forskolin-stimulated cAMP accumulation as described above were grown in 150 cm2 tissue culture dishes. Cells were washed with saline solution, scraped with a cell scraper and collected by centrifugation (1000 rpm, 5 min). L cells expressing human histamine H3 receptor bound ^3H—N-alpha-methylhistamine with high affinity (FIG. 7). Cell membranes were prepared by homogenization of the cell pellet in 20 mM TRIS-HCl with a polytron tissue homogenizer for 10 seconds at high speed. Homogenate was centrifuged at 1000 rpm for 5 minutes at 4° C. The supernatant was then collected and centrifuged at 20,000×g for 25 minutes at 4° C. The final pellet is resuspended in 50 mM Tris-HCl. Cell membranes were incubated with ^3H—N-alpha-methylhistamine (0.01 nM–25 nM) in the presence or absence of excess histamine (10000 nM). Incubation was done at room temperature for 45 minutes. Membranes were harvested by rapid filtration over Whatman GF/C filters and washed 4 times with ice cold 50 mM TRIS HCl. Filters were then dried, mixed with scintillant and counted for radioactivity. […]

T1 sequence (Q9Y5N1 whole entry E19D): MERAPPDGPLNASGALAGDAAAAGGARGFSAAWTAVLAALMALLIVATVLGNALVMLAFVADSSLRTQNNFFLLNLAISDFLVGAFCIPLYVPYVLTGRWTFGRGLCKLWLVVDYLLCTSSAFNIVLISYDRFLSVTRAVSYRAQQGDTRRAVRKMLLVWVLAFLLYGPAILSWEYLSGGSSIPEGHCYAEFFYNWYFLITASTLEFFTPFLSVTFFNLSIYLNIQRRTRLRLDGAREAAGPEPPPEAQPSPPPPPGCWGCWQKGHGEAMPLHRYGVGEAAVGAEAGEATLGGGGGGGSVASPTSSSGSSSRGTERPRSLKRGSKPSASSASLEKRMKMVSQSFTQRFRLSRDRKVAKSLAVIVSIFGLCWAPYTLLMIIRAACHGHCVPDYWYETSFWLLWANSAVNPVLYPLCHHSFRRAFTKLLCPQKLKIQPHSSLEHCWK

On to `[3H]CNCCc1cnc[nH]1` [^3H—N-alpha-methylhistamine], for which the “affinity of binding to L cells expressing human histamine H3 receptor” value was “high affinity”.

(Values after patent US7179604B2, “Methods of use of DNA encoding a human histamine receptor of the H3 subtype” (Ortho-McNeil Pharmaceutical, Inc., priority 1998, dated 2007).)
